Laboratory results taken from ChEMBL document CHEMBL3045021, “Synthesis, antibacterial, and antifungal activities of biolabile (E)-1-(4-morpholinophenyl)-3-aryl-prop-2-en-1-ones” (2009).

Assays:
Assay type in all cases: functional
[1] = tested on: Nannizzia gypsea; assay: Antimicrobial activity against Microsporum gypseum at 100 U/disk after 72 to 96 hr by disk diffusion method
[2] = tested on: Rhizopus; assay: Antimicrobial activity against Rhizopus at 100 U/disk after 72 to 96 hr by disk diffusion method
[3] = tested on: Mucor; assay: Antimicrobial activity against Mucor at 100 U/disk after 72 to 96 hr by disk diffusion method
[4] = tested on: Aspergillus flavus; assay: Antimicrobial activity against Aspergillus flavus at 100 U/disk after 72 to 96 hr by disk diffusion method

Measured: inhibition zone (IZ)

OC(Cn1cncn1)(Cn1cncn1)c1ccc(F)cc1F [FLUCONAZOLE]
20 mm: all assays above
